Patent US20210213041A1, “REPEAT RNA AS BIOMARKERS OF TUMOR IMMUNE RESPONSE” (The General Hospital Corporation, priority 2018, published 2021)

Tested on: melanoma
Assay: Immunotherapy response of melanoma patients by standard clinical imaging criteria (CT scan change), tumors classed by HSATII RNA-ISH
Assay type: in vivo, human
Protocol: All combined RNA-ISH and IHC assays are performed as follows: Monoclonal antibodies for immune cells (T-cell subsets CD3, CD4, CD8, FOXP3; Macrophages CD68, CD163; B-cells CD20; NK cells CD16, CD56) and RNA ISH probes for repeat RNAs (HSATII, HERV-K, HERV-H, LINE1) were sequentially applied on a single histologic slide, and contrasting chromogens were used to visualize the antibody: brown (diaminobenzidine [DAB]) for immune marker and RNA: red (fast red) for repeat RNA. Paraffin-embedded sections were mounted on coated slides and were placed in an oven for 60 minutes at 60° C. The sequential double-staining protocol was performed using the Leica Bond Rx automated immunostainer. […]
As shown herein, HSATII low melanomas respond to immunotherapy including anti-PD1/PDL1 and anti-CTLA4 therapies (FIG. 5). Briefly, a cohort of 20 melanoma patients who received either anti-PD1/PDL1 or anti-CTLA4 therapy that had formalin fixed paraffin embedded (FFPE) tissue were evaluated with HSATII RNA-ISH combined with CD3 T cell IHC assay. Tumors were evaluated for HSATII RNA levels (HIGH vs LOW) and CD3 T cell infiltrates quantitated by manual counting of cells in a 400×200 micron area by a pathologist. […] Tumors were evaluated for HSATII RNA levels (HIGH vs LOW) and CD163 macrophage infiltrates quantitated by manual counting of cells in a 400×200 micron area by a pathologist.

Substance	immunotherapy response as determined by standard clinical imaging criteria (CT scan change) (HSATII HIGH tumors (low CD3 T-cells))	immunotherapy response as determined by standard clinical imaging criteria (CT scan change) (HSATII LOW tumors (high CD3 T-cells))
nivolumab	non-responder	
ipilimumab		responder
